From US4579866A, “Phenylacetamides as anti-allergy, anti-asthma and anti-inflammatory agents” (USV Pharmaceutical Corp., priority 1984, dated 1986)

Columns and labels:
LTC4 = assay: Antagonism of leukotriene C4 binding (guinea pig peripheral lung strips, contraction); assay type: cell-based; settings: Cavia porcellus, leukotriene C4 usually 0.2 nM, 37° C., read-out: ANTAGONISM OF LTC4 BINDING, I50
Procedure: Protocol for Antagonism of Leukotrines C-4 Binding
Peripheral strips of guinea pig lungs are prepared and hung in tissue baths according to the procedure described by Drazen et al. (Proc. Nat'l. Acad. Sci., U.S.A. 77, 4354-4358, 1980). Male guinea pigs (Charles River, 250-400 g) are sacrificed by cervical dislocation and their lungs rapidly removed. The individual lobes are dissected free and rinsed in Assay Buffer (118 mM NaCl, 5.4 mM KCl, 2.5 mM CaCl2, 25 mM […], 1 mM MgSO4, 1 mM NaH2 PO4, 11 mM glucose) which is continuously aerated with 95% oxygen/5% carbon dioxide. After the lobes are extensively rinsed, a strip of lung tissue, approximately 2 mm thick and 5-8 cm long, is cut off the sharpest and most peripheral portion of each lobe. The peripheral edge is cut almost completely around the outside of the lobe so that a U-shaped strip is obtained. These strips are rinsed in Assay Buffer and then connected with surgical silk thread to the support rods of the water jacketed tissue baths (10 ml chambers). The other ends of the strips are connected to Gould UC3 pressure transducers which had been previously calibrated. The tissue baths are aerated with 95% oxygen/5% carbon dioxide and maintained at 37° C. The tension on these strips are adjusted to 500 mg. The tissues are initially washed with fresh buffer every 5-10 minutes for about 30 minutes and thereafter washed with fresh assay buffer at least every 20 minutes.
After the tissue had been repeatedly washed and allowed to equilibrate in the tissue baths, they are challenged with 1 μM histamine to standardize the contractions for each tissue.
Responses of each tissue to a predetermined concentration (usually 0.2 nM) of leukotriene C4 are then obtained. Compounds are then tested for their ability to antagonize to leukotriene C4 immediately upon challenge.
(§1) If the percentage of inhibition exceeds 50%, the compounds are then evaluated in terms of response over a range of concentrations. From a plot of response against concentration, the I50 value is obtained. The I50 value is the concentration at which 50% inhibition is observed.

HUMAN 5 LIPOXYGENASE = target: T1, HUMAN 5 LIPOXYGENASE (Homo sapiens, UniProt P09917); assay: Biosynthesis of 5-HETE by human polymorphonuclear leukocytes in vitro (inhibition of human 5-lipoxygenase); assay type: cell-based; settings: human neutrophils, A23187, 3 minutes at 30° C.; concentration at which 50% inhibition is observed; read-out: INHIBITION OF HUMAN 5 LIPOXYGENASE, I50
T1 construct: A suspension of human neutrophils in buffer; endogenous in cells; host or cells: human neutrophils (PMNs) from venous blood of healthy volunteers
T1 sequence (P09917 1-674): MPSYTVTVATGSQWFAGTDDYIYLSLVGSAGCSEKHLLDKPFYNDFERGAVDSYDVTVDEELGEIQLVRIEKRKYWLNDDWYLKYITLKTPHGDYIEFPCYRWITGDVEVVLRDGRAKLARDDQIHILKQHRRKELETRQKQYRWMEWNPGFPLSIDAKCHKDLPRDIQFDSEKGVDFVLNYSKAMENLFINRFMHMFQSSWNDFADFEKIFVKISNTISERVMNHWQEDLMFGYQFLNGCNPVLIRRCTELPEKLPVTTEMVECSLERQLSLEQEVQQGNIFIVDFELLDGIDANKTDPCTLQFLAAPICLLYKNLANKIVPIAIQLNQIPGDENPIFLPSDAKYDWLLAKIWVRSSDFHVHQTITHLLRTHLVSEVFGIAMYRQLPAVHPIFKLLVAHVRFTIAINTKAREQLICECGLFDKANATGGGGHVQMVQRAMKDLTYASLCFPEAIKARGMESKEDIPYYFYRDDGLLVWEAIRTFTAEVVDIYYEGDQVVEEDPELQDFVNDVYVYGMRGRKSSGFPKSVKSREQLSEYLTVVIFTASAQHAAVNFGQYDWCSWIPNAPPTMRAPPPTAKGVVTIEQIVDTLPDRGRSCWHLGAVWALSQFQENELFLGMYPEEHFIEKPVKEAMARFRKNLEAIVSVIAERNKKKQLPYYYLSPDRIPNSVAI
Procedure: Protocol for the Biosynthesis of 5-HETE (5(S)-Hydroxyeicosatetraenoic Acid) by Human Polymorphonuclear Leukocytes In Vitro
(A) Isolation of Human Neutrophils
Freshly drawn venous blood from healthy human volunteers is mixed with 2 mM ethylenediamine tetraacetic acid, and is sedimented at 1×g over 6% dextran-saline. The leukocyte layer is aspirated, and the cells are concentrated by centrifugation and are layered over stacked Percoll® solutions, having densities of 1.072, 1.082 and 1.100, respectively. PMNs are isolated at the interface between the two densest layers after centrifugation at 400×g. Contaminating red blood cells are lysed by a short treatment of 0.16M ammonium chloride.
A suspension of human neutrophils in buffer is incubated for 3 minutes at 30° C. with (^14 C)-arachidonic acid (AA) and calcium ionophore A23187. Citric Acid (2M)/NDGA*(10 mM) is used to quench the reaction. Following the addition of a trace amount of (^3 H)-5-HETE together with an excess of unlabeled 5-HETE to each tube, the mixture is extracted with chloroform/methanol. The organic layer is washed with dilute hydrochloric acid and the total volume is transferred to glass tubes and dried in vacuo. The residue is dissolved in a small volume of chloroform and is spotted on silica gel TLC sheets, which are developed with an ethyl acetate/iso-octane/water/acetic acid solvent system (11/5/10/1 v/v). The 5-HETE spots are visualized under UV light, cut out and placed in scintillation vials for quantitation of radioactivity. After adjusting for the extraction efficiency, the amount (pmole) of (^14 C)-5-HETE in each of the tubes is calculated. The net pmoles of 5-HETE are obtained by subtracting the pmole of 5-HETE in the tubes containing buffer alone (blank) from the pmoles of 5-HETE in the tubes containing […]. The ability of the test compound to modulate the activity of this enzyme is determined by a decrease or increase in the net amount of 5-HETE produced. This assay is a modification of that described by Bach and Brashler for rat peritoneal cells: Bach, M., Brashler, J.: Ionophore A23187-Induced Production of SRS-A by Rat Peritoneal Cells In Vitro: Evidence for Production by Mononuclear Cells. J. Immunol. 120 998-1005 (1978).
*NDGA-nordihydroguaiaretic acid
as §1

How did the IC50 (LTC4) turn out when `CN(CC(O)c1ccccc1)C(=O)Cc1ccc(OCCc2ccccc2)c(Cl)c1` (centres unmarked) [N--[3-Chloro-4-phenylethyloxyphenylacetyl]-N--methyl-2-hydroxy-2-phenyl-ethyl-amine] was run?
Its IC50 is 5 µM.

And the IC50 (HUMAN 5 LIPOXYGENASE)?
Its IC50 is 10 µM.

How did the IC50 (LTC4) turn out when `CCCOc1ccc(CC(=O)N[C@H](Cc2ccccc2)C(=O)OC)cc1Cl` [3-Chloro-4-n-propyloxyphenylacetyl-D-phenylalanine methyl ester] was run?
Its IC50 is 9 µM.

What about the IC50 (HUMAN 5 LIPOXYGENASE) of the same compound?
The IC50 was 6 µM.

What does the source list for `C=CCOc1ccc(CC(=O)N(C)CCc2ccccc2)cc1Cl` [N--[4-Alloyoxy-3-chlorophenylacetyl]-N--methyl-2-phenylethylamine]?
IC50 (LTC4): 3 µM; IC50 (HUMAN 5 LIPOXYGENASE): 2 µM

What does the source list for `C#CCOc1ccc(CC(=O)N[C@H](Cc2ccccc2)C(=O)OC)cc1Cl` [3-Chloro-4-propargyloxyphenylacetyl-D-phenylalanine methyl ester]?
IC50 (LTC4): 12 µM; IC50 (HUMAN 5 LIPOXYGENASE): 1.5 µM
